The values that follow come from US8071591B2, “7-cycloalkylaminoquinolones as GSK-3 inhibitors” (Kyorin Pharmaceutical Co., Ltd., priority 2009, dated 2011).

pEC50: −log10 of the molar value. A value given as a limit tells only on which side of the number the result lay.

For one assay, the system named is HepG2 cells. The assay is described as follows: GS activation: [3H]glucose incorporation into glycogen in HepG2 cells. The conditions noted are these: Homo sapiens, 3 hrs incubation with D-[2-3H]glucose, serum-free low-glucose DMEM, read-out: EC50 for glycogen synthesis. Format: cell-based. Here is the method: HepG2 cells were obtained from the Japanese Collection of Research Bioresources and were grown in standard culture medium, a low-glucose Dulbecco's modified Eagle's medium (DMEM) containing 10% fetal calf serum supplemented with 100 U/mL penicillin and 100 μg/mL streptomycin, in a humidified and 5% CO2 atmosphere kept at 37° C. The HepG2 cells were harvested with 0.25% trypsin solution containing 1 mM EDTA, and were seeded on 12 well plates at 1×10^5 cells per well. Following a culture for 3 days, the cells were washed once with phosphate buffered saline (PBS), and were incubated with serum-free low-glucose DMEM supplemented with 100 U/mL penicillin and 100 μg/mL streptomycin. Following a culture for 3 hrs, GSK-3 inhibitor at various concentration and 2.5 μCi/mL D-[2-^3H]glucose (New England Nuclear, Boston, Mass., USA) were added to the serum-free low-glucose DMEM. A vehicle control of DMSO (0.3%, final concentration) was also used. Total volume per well of the reaction medium was 1.0 mL of serum-free low-glucose DMEM. After incubation at 37° C. for 3 hrs, medium was aspirated and cells were washed twice with PBS, and were added 0.25 mL of 1 N KOH containing 0.4 mg/mL carrier glycogen. […] [^3H]Glucose incorporation into glycogen was assessed using a liquid scintillation counter (Packard Instrument Co., Meriden, Conn., USA).

The test system of the next assay is Male Crlj:CD1 (ICR) mice. The assay is described as follows: Glucose tolerance study in fasted ICR mice. In kind it is in vivo. The conditions noted are these: 10 mg/kg orally, 30 minutes before oral glucose load (5 g/kg), fasted 7-week-old ICR mice. The protocol:
Male Crlj:CD1 (ICR) mice were obtained from Charles River Laboratories Japan (Yokohama, Japan). All mice were given a standard diet (Clea Japan, Tokyo, Japan) and tap water ad libitum. All institutional guidelines for animal care and use were applied in this study. Test compounds were suspended in 0.3% carbozymethyl-cellulose sodium salt (CMC-Na; Sigma, St. Louis, Mo.). After fasting for 15-17 hours, the test compound (3, 10, 30, 100 or 300 mg/kg) or vehicle (0.3% CMC-Na) was orally administered to 7-week-old ICR mice. Glucose solution (5 g/kg) was orally administered at 30 minutes after test compound treatment. Blood samples were collected from tail vein using capillary tubes containing EDTA-2K before test compound treatment, and at 0, 0.5, 1, and 2 hours after glucose load. The blood samples were centrifuged at 2,500×g for 5 minutes and separated plasma was kept on ice and analyze in the same day. Plasma glucose levels were determined using the glucose CII-test (Wako Pure Chemical Industries, Osaka, Japan). The sum of plasma glucose levels at 0.5 and 1 hr after glucose load was compared to that of vehicle treatment, and results were presented as percent decrease.

What is called pEC50 is −log10 of the EC50, conventionally taken in molar units. On to `C[C@H]1COc2c(NC3CCCC(c4cccnc4)C3)c(F)c(N)c3c(=O)c(C#N)cn1c23` (stereo in doubt) [Example 9, (3S)-8-amino-9-fluoro-2,3-dihydro-3-methyl-7-oxo-10-[trans-3-(3-pyridyl)cyclohexylamino]-7H-pyrido[1,2,3-de][1,4]benzoxazine-6-carbonitrile], for which, in the assay on HepG2 cells, the pEC50 was no less than 6.52.
Regarding `C[C@H]1COc2c(N[C@H]3CC[C@H](c4cccnc4)CC3)c(F)c(N)c3c(=O)c(C#N)cn1c23` [Example 7, (3S)-8-amino-9-fluoro-2,3-dihydro-3-methyl-7-oxo-10-[trans-4-(3-pyridyl)cyclohexylamino]-7H-pyrido[1,2,3-de][1,4]benzoxazine-6-carbonitrile], the pEC50 in the assay with HepG2 cells is no less than 6.52.
For `C[C@H]1COc2c(N[C@@H]3CC[C@@H](c4ccccn4)C3)c(F)c(N)c3c(=O)c(C#N)cn1c23` [Example 2, (3S)-8-amino-9-fluoro-2,3-dihydro-3-methyl-7-oxo-10-[(1R,3R)-3-(2-pyridyl)cyclopentylamino]-7H-pyrido[1,2,3-de][1,4]benzoxazine-6-carbonitrile], the “percent decrease of the sum of plasma glucose levels at 0.5 and 1 hr after glucose load vs vehicle” value with Male Crlj:CD1 (ICR) mice is reported as 22%.
